Measured values published in the supplement of paper PMC8967900.

Key:
Test in all cases: selective drug sensitivity score (sDSS, relative to normal bone marrow) (sDSS (score)); higher = more potent and effective on the cell line relative to normal bone marrow cells
Settings in all cases: 72 h
CCRF-HSB2 = tested on: CCRF-HSB2
TANOUE = tested on: TANOUE
COG-LL-355h = tested on: COG-LL-355h
SUP-B15 = tested on: SUP-B15
MOLT-4 = tested on: MOLT-4
KASUMI-2 = tested on: KASUMI-2
380 = tested on: 380
MHH-CALL-3 = tested on: MHH-CALL-3
COG-LL-402h = tested on: COG-LL-402h
MHH-CALL-4 = tested on: MHH-CALL-4
KARPAS-45 = tested on: KARPAS-45
DND-41 = tested on: DND-41
HPB-ALL = tested on: HPB-ALL
JURKAT = tested on: JURKAT
697 = tested on: 697
ALL-SIL = tested on: ALL-SIL
MN-60 = tested on: MN-60
COG-LL-317 = tested on: COG-LL-317
COG-LL-319h = tested on: COG-LL-319h
NALM-16 = tested on: NALM-16
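Note: ALL cell lines in 384-well plates, five doses spanning 10,000-fold, each plate scaled between vehicle and 100 µmol/L benzalkonium chloride controls, sDSS an adapted area-under-curve metric.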

SMILES	selective drug sensitivity score (CCRF-HSB2)	selective drug sensitivity score (TANOUE)	selective drug sensitivity score (COG-LL-355h)	selective drug sensitivity score (SUP-B15)	selective drug sensitivity score (MOLT-4)	selective drug sensitivity score (KASUMI-2)	selective drug sensitivity score 380	selective drug sensitivity score (MHH-CALL-3)	selective drug sensitivity score (COG-LL-402h)	selective drug sensitivity score (MHH-CALL-4)	selective drug sensitivity score (KARPAS-45)	selective drug sensitivity score (DND-41)	selective drug sensitivity score (HPB-ALL)	selective drug sensitivity score (JURKAT)	selective drug sensitivity score 697	selective drug sensitivity score (ALL-SIL)	selective drug sensitivity score (MN-60)	selective drug sensitivity score (COG-LL-317)	selective drug sensitivity score (COG-LL-319h)	selective drug sensitivity score (NALM-16)
COCC[n+]1c2c(n(Cc3cnccn3)c1C)C(=O)c1ccccc1C2=O [Sepantronium_bromide] (top concentration 10000 nM)	14.6	14.7	15.5	22.3	15.9	19.5	22	22.3	22.8	19.4	11	-7.46	6.34	14.2	22.8	-3.26	21.2	13.3	4.64	22.2
COc1cc(Nc2ncc(F)c(Nc3ccc4c(n3)NC(=O)C(C)(C)O4)n2)cc(OC)c1OC [Tamatinib] (top concentration 10000 nM)	4.78	-5.32	-1.52	-0.62	-5.42	-5.42	-5.42	-5.42	-1.22	-4.62	-2.92	-1.82	-5.42	-5.42	1.28	-5.42	-5.42	-5.42	-0.72	-1.42
O=C(Nc1cccc(NC(=O)c2cccc(O)c2O)c1)c1cccc(O)c1O [MST-312] (top concentration 10000 nM)	12.8	3.7	3.2	9.5	9.2	-1.6	6	-4	8.6	1.8	8.1	7.2	8.7	12.5	-1.2	9.6	9.8	18.2	12.8	2.8
CCCCCCCCCCCCCCCCOP(=O)([O-])OCC[N+](C)(C)C [Miltefosine] (top concentration 100000 nM)	7.26	1.76	1.36	2.36	0.26	1.76	-1.54	-2.94	0.46	-1.34	2.26	2.66	-2.94	-1.14	1.46	3.36	3.26	1.06	2.76	-0.34
CO[C@@H]1[C@H](N(C)C(=O)c2ccccc2)C[C@H]2O[C@]1(C)n1c3ccccc3c3c4c(c5c6ccccc6n2c5c31)C(=O)NC4 [Midostaurin] (top concentration 10000 nM)	11.7	-7.24	4.66	8.96	8.66	-1.14	10.1	-0.64	6.86	3.66	4.06	2.46	4.36	-1.34	14	10.8	-1.24	8.96	11.7	-0.64
O=C(CCCCCCNC(=O)c1cnc(N(c2ccccc2)c2ccccc2)nc1)NO [Rocilinostat] (top concentration 10000 nM)	6.54	-0.26	4.84	5.64	5.04	10.2	8.54	14.5	8.14	3.74	10	3.54	5.54	2.74	5.84	9.14	1.04	5.14	8.24	3.34
C[C@@H]1COCCN1c1cc(C2([S@](C)(=N)=O)CC2)nc(-c2cc[nH]c3nccc2-3)n1 [AZD6738] (top concentration 25000 nM)	4.58	-6.12	6.18	9.68	8.78	1.38	19.5	12.2	7.68	5.48	8.28	8.58	7.38	3.88	11	8.88	-1.02	16	15.6	0.68
CN(C(=O)c1ccc(F)cc1C(F)(F)F)C1CCN(c2nnc(-c3ccnn3C)c3ccccc23)CC1 [Taladegib] (top concentration 10000 nM)	-0.92	4.98	1.48	3.78	-0.12	11	4.08	-0.32	-1.12	-1.12	-0.92	-1.12	7.08	2.78	1.88	0.08	-1.12	-1.12	5.78	0.88
COc1cccc2c1C(=O)c1c(O)c3c(c(O)c1C2=O)C[C@@](O)(/C(CO)=N/NC(=O)CCCCCN1C(=O)C=CC1=O)C[C@@H]3O[C@H]1C[C@H](N)[C@H](O)[C@H](C)O1 [Aldoxorubicin] (top concentration 1000 nM)	14.8	-7.76	4.44	12.5	11.8	8.54	13.2	14.1	14.3	8.14	0.94	1.84	1.04	1.64	10.2	0.74	0.84	14.8	14	-0.46
